Like-named read-outs stand apart in the source and are kept apart here.
Key:
MV-4-11 (AML) xenograft = MV-4-11 (AML) xenograft model; cited from earlier work
MOLM-13 (AML) xenograft = MOLM-13 (AML) xenograft model; cited from earlier work
recombinant PIM-1 = recombinant PIM-1 (Homo sapiens, UniProt P11309); assay: PIM-1 kinase assay; format: biochemical; details: for inhibition at 0.5 µM: 500 nM compound, read-out: PIM1: % inh 500 nM
Description: The following procedure was used to assay the PIM-1 kinase activity of compounds of the invention. Other methods for assaying PIM-1 and other PIM kinases, as well as methods to assay for activity against various kinases known in the art.
In a final reaction volume of 50 ul, recombinant PIM-1 (1 ng) was incubated with 12 mM MOPS pH 7.0, 0.4 mM EDTA, glycerol 1%, brij 35 0.002%, 2-mercaptoethanol 0.02%, BSA 0.2 mg/ml, 100 uM KKRNRTLTK, 10 mM MgAcetate, 15 uM ATP, [γ-^33P-ATP] (specific activity approx. 500 cpm/pmol), DMSO 4% and test inhibitor compound at the required concentration. The reaction was initiated by the addition of the Magnesium ATP mixture. After 40 min incubation at 23° C., the reactions were quenched by the addition of 100 ul 0.75% Phosphoric acid, and the labeled peptide collected by filtration through a phosphocellulose filter plate. The plate was washed 4 times with 0.075% phosphoric acid (100 ul per well) and then, after the addition of scintillation fluid (20 ul per well), the counts were measured by a scintillation counter.

recombinant human CK2 = molecular target: T1, recombinant human CK2 (Homo sapiens, UniProt P68400); assay: cell-free CK2 assay; format: biochemical
T1 construct: purchased Upstate
T1 sequence (P68400 whole entry): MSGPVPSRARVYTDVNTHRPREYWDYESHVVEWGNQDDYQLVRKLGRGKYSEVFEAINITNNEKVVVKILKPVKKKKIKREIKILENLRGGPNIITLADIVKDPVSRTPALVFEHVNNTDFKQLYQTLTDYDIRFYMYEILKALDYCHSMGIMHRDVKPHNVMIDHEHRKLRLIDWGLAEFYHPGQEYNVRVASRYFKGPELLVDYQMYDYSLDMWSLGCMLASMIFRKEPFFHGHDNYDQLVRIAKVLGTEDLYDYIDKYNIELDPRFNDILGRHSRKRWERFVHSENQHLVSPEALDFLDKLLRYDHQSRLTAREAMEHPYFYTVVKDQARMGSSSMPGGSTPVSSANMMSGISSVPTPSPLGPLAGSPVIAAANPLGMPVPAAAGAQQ
T1 sequence (P67870 whole entry partner): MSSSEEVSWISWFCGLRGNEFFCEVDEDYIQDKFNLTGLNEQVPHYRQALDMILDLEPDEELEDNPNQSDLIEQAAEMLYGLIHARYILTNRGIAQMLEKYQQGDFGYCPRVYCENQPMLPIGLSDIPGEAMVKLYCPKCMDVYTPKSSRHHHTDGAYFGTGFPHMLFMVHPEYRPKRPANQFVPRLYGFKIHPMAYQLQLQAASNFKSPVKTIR
Description: Modulatory activity of compounds described herein was assessed in vitro in cell-free CK2 assays by the following method.
Test compounds in aqueous solution were added at a volume of 10 microliters, to a reaction mixture comprising 10 microliters Assay Dilution Buffer (ADB; 20 mM MOPS, pH 7.2, 25 mM beta-glycerolphosphate, 5 mM EGTA, 1 mM sodium orthovanadate and 1 mM dithiothreitol), 10 microliters of substrate peptide (RRRDDDSDDD, dissolved in ADB at a concentration of 1 mM), 10 microliters of recombinant human CK2 (25 ng dissolved in ADB; Upstate). Reactions were initiated by the addition of 10 microliters of ATP Solution (90% 75 mM MgCl2, 75 micromolar ATP dissolved in ADB; 10% [γ-^33P]ATP (stock 1 mCi/100 μl; 3000 Ci/mmol (Perkin Elmer) and maintained for 10 minutes at 30 degrees C. The reactions were quenched with 100 microliters of 0.75% phosphoric acid, then transferred to and filtered through a phosphocellulose filter plate (Millipore). After washing each well 5 times with 0.75% phosphoric acid, the plate was dried under vacuum for 5 min and, following the addition of 15 ul of scintilation fluid to each well, the residual radioactivity was measured using a Wallac luminescence counter.

recombinant human PIM2 = recombinant human PIM2 (Homo sapiens, UniProt Q9P1W9); assay: PIM-2 kinase assay; format: biochemical
recombinant human PIM2, sequence (Q9P1W9 whole entry): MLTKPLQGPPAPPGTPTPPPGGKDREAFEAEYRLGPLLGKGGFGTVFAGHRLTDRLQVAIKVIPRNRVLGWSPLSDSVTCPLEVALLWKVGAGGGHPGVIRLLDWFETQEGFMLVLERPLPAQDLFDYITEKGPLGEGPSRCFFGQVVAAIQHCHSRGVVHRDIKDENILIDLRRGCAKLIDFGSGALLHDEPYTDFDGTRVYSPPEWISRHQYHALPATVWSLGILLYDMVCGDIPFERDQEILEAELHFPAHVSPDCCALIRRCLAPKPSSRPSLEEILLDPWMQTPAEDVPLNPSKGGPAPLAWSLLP
Description: Test compounds dissolved and diluted in DMSO (2 μl) were added to a reaction mixture comprising 10 μl of 5× Reaction Buffer (40 mM MOPS pH 7.0, 5 mM EDTA), 10 μl of recombinant human PIM2 solution (4 ng PIM-2 dissolved in dilution buffer (20 mM MOPS pH 7.0; EDTA 1 mM; 5% Glycerol; 0.01% Brij 35; […]; […] 2-mercaptoethanol; 1 mg/ml BSA)) and 8 ul of water. Reactions were initiated by the addition of 10 ul of ATP Solution ([…] (15 mM MgCl2; 75 uM ATP) 1% ([γ-33P]ATP: Stock 1 mCi/100 μl; 3000 Ci/mmol (Perkin Elmer)) and 10 ul of substrate peptide solution (RSRSSYPAGT, dissolved in water at a concentration of 1 mM), Reactions were maintained for 10 min at 30° C. The reactions were quenched with 100 ul of 0.75% Phosphoric acid, then transferred to and filtered through a Phosphocellulose filter plate (Millipore, MSPH-N6B-50). After washing each well 4 times with 0.75% Phosphoric acid, scintillation fluid (20 uL) was added to each well and the residual radioactivity was measured using a Wallac luminescence counter.

[1] = tested on: K-562 human chronic myelogenous leukemia (CML) cells; assay: Alamar Blue cell proliferation assay, K-562; format: cell-based
Description: (§1) A representative cell-proliferation assay protocol using Alamar Blue dye (stored at 4° C., use 20 ul per well) is described hereafter.
(§2) a. Split and trypsinize cells.
(§3) b. Count cells using hemocytometer.
(§4) c. Plate 4,000-5,000 cells per well in 100 μl of medium and seed into a 96-well plate according to the following plate layout. Add cell culture medium only to wells B10 to B12. Wells B1 to B9 have cells but no compound added.
(§5) d. Add 100 μl of 2× drug dilution to each well in a concentration shown in the plate layout above. At the same time, add 100 μl of media into the control wells (wells B10 to B12). Total volume is 200 μl/well.
(§6) e. Incubate four (4) days at 37° C., 5% CO2 in a humidified incubator.
(§7) f. Add 20 μl Alamar Blue reagent to each well.
(§8) g. Incubate for four (4) hours at 37° C., 5% CO2 in a humidified incubator.
(§9) h. Record fluorescence at an excitation wavelength of 544 nm and emission wavelength of 590 nm using a microplate reader.
(§10) In the assays, cells are cultured with a test compound for approximately four days, the dye is then added to the cells and fluorescence of […] dye is detected after approximately four hours. Different types of cells can be utilized in the assays (e.g., HCT-116 human colorectal carcinoma cells, PC-3 human prostatic cancer cells, MDA-MB231 human breast cancer cells, K-562 human chronic myelogenous leukemia (CML) cells, MiaPaca human pancreatic carcinoma cells, MV-4 human acute myeloid leukemia cells, and BxPC3 human pancreatic adenocarcinoma cells).

MV-4-11 = assay: Alamar Blue cell proliferation assay, MV-4-11; format: cell-based; details: Homo sapiens, MV4-11
Description: as §1, §2, §3, §4, §5, §6, §7, §8, §9, §10

[2] = tested on: BxPC3 human pancreatic adenocarcinoma cells; assay: Alamar Blue cell proliferation assay, BxPC3; format: cell-based; details: BXPC-3
Description: as §1, §2, §3, §4, §5, §6, §7, §8, §9, §10

MDA-MB45 = assay: Alamar Blue cell proliferation assay, MDA-MB45; format: cell-based
Description: as §1, §2, §3, §4, §5, §6, §7, §8, §9, §10

SUM-149PT = assay: Alamar Blue cell proliferation assay, SUM-149PT; format: cell-based; details: Homo sapiens, SUM149PT
Description: as §1, §2, §3, §4, §5, §6, §7, §8, §9, §10

[3] = tested on: MDA-MB231 human breast cancer cells; assay: Alamar Blue cell proliferation assay, MDA-MB231; format: cell-based; details: MDA-MB-231, read-out: MDAMB231 IC50
Description: as §1, §2, §3, §4, §5, §6, §7, §8, §9, §10

[4] = tested on: MiaPaca human pancreatic carcinoma cells; assay: Alamar Blue cell proliferation assay, MiaPaCa; format: cell-based; details: MIA PaCa-2
Description: as §1, §2, §3, §4, §5, §6, §7, §8, §9, §10

[5] = tested on: PC-3 human prostatic cancer cells; assay: Alamar Blue cell proliferation assay, PC3; format: cell-based
Description: as §1, §2, §3, §4, §5, §6, §7, §8, §9, §10

FLT3 = molecular target: T2, FLT3 (Homo sapiens, UniProt P36888); assay: FLT3 inhibition; format: biochemical
T2 sequence (P36888 27-993): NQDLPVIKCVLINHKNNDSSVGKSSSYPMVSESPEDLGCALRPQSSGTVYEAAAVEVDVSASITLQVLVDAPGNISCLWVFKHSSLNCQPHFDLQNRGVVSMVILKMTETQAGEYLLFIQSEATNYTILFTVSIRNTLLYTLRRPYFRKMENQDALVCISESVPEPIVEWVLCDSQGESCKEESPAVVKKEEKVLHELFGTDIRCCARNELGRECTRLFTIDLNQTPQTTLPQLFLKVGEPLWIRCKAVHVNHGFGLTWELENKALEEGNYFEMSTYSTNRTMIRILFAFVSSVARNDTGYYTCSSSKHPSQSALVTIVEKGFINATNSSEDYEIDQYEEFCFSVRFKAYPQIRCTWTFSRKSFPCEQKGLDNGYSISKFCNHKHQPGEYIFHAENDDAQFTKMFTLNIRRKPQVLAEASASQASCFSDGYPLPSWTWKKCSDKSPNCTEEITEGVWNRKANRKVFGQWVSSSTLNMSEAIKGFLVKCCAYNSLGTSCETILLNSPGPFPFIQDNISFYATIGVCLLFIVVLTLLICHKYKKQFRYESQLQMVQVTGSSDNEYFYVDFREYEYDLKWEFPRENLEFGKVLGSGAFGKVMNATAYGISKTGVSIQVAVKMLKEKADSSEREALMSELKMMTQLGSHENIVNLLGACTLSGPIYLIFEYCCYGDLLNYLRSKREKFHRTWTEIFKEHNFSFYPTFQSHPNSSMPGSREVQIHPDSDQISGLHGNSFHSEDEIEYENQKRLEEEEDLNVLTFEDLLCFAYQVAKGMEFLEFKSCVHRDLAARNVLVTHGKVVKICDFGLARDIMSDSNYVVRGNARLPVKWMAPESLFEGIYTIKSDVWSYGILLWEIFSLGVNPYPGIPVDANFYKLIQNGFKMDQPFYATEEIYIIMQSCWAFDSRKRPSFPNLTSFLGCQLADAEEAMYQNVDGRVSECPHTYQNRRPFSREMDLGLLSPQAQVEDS

[6] = tested on: leukemic cells from AML patients; details: cited from earlier work
[7] = 15 μM ATP, read-out: PIM1: IC50 (15 μM ATP)

recombinant PIM-1, sequence (P11309 whole entry): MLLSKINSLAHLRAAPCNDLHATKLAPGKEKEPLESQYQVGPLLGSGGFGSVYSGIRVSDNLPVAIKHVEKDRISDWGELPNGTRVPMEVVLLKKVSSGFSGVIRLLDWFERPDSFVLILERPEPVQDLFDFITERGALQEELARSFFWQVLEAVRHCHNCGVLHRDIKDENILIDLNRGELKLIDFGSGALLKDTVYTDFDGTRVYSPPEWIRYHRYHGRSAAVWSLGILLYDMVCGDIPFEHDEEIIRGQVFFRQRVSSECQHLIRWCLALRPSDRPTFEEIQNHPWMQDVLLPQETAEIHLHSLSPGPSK

IC50 (recombinant PIM-1; Table 5, read-out: PIM1 IC50) [µM]	IC50 (recombinant human CK2) [µM]	IC50 (recombinant human PIM2) [µM]	IC50 ([1]; K562, Table 5) [µM]	IC50 (MV-4-11; Table 5) [µM]	IC50 [2] [µM]	IC50 (MDA-MB45) [µM]	inhibition at 0.5 µM (recombinant PIM-1) [%]	IC50 (recombinant PIM-1; [7]) [µM]	IC50 ([1]; K562, Table 4) [µM]	IC50 (MV-4-11; Table 4) [µM]	IC50 [3] [µM]	IC50 [4] [µM]	SMILES	IC50 (SUM-149PT) [µM]	also measured
–	–	–	–	–	–	–	–	–	–	–	–	–	CN1CCC(CNc2ccc3ncc(-c4cccc(OC(F)(F)F)c4)n3n2)CC1 [SGI-1776]	–	tumor regression (MV-4-11 (AML) xenograft): significant tumor regression; tumor regression (MOLM-13 (AML) xenograft): significant tumor regression
< 0.1	< 0.1	< 0.1	< 10	< 5	> 30	28.4	–	–	–	–	–	–	Fc1ccccc1Nc1nc2c(-c3nnc[nH]3)cccc2n2cccc12	22.8	–
–	–	–	–	–	–	–	91.4	0.071	10.7	6.91	12	> 10	O=C(O)c1ccc2c(c1)nc(Nc1ccc(F)c(Cl)c1)c1cccn12	–	IC50 [5]: > 10 µM
< 0.1	< 0.1	< 0.1	> 10	< 5	< 10	< 5	–	–	–	–	–	–	Clc1ccccc1Nc1nc2c(-c3nnc[nH]3)cccc2n2cccc12	< 5	IC50 (FLT3): > 10 µM
–	–	–	–	–	–	–	57.1	0.576	> 10	> 10	> 10	> 10	Clc1ccc(Nc2nc3cc(-c4nnn[nH]4)ccc3n3cccc23)cc1	–	–
< 0.1	< 1	< 0.1	> 10	< 5	≥ 30	28	–	–	–	–	–	–	Oc1cccc(Nc2nc3c(-c4nnc[nH]4)cccc3n3cccc23)c1	> 30	–
< 0.1	< 1	< 1	> 10	< 10	> 30	12	–	–	–	–	–	–	O=C(NC1CC1)c1cccc2c1nc(Nc1ccccc1F)c1cccn12	< 10	–
–	–	–	–	–	–	–	50.5	0.504	> 10	1.21	> 10	> 10	Fc1ccc(Nc2nc3cc(-c4nnn[nH]4)ccc3n3cccc23)cc1Cl	–	–
–	–	–	–	–	–	–	–	–	–	–	–	–	CN(C)C[C@@H]1CCn2cc(c3ccccc32)C2=C(C(=O)NC2=O)c2cn(c3ccccc23)CCO1 [Ly5333′531]	–	effect on cell growth and cell death [6]: suppressed cell growth and induced cell death
< 0.1	< 0.1	< 0.1	< 10	< 5	10.2	15.7	–	–	–	–	–	–	Fc1ccc(Nc2nc3c(-c4nnc[nH]4)cccc3n3cccc23)c(F)c1	23.3	–
< 0.1	< 0.1	< 0.1	> 10	< 5	≥ 30	16	–	–	–	–	–	–	Clc1cccc(Nc2nc3c(-c4nnc[nH]4)cccc3n3cccc23)c1	21	–
–	–	–	–	–	–	–	52.9	0.419	> 10	> 10	> 10	> 10	O=C(O)c1ccc2c(c1)nc(NCC(F)(F)F)c1cccn12	–	IC50 [5]: > 30 µM
